From patent US11006626B2, “Compounds for protection of cells” (Sulfateq B.V., priority 2012, dated 2021)

Columns and labels:
Assay type in all cases: cell-based
[1] = test system: Human Embryo Kidney (HEK) 293 cells; test: Hypothermia/rewarming injury of HEK cells, trypan blue viability count
Method: Human Embryo Kidney (HEK) 293 cells were cultured in DMEM cell culture medium (Life Technologies, 41965-052) supplemented with fetal calf serum, penicillin and streptomycin. Cells were seeded at a density of 0.8-1.2E6 mL-1 in 25 cm2 polystyrene flasks, placed in a 37° C.
The compounds were dissolved in dimethyl sulfoxide (DMSO) to several concentrations. Before commencing experiments, this stock solution was dissolved in pre-warmed DMEM and further diluted to obtain a concentration range from 10 nM-1 mM. Cell culture medium was then replaced by these dilutions and cells were incubated in the presence of the compound for 1 hour. After incubation, lids were closed tightly and flasks were placed in a 4° C. room and cooled for 24 hours. After this cooling period, cells were placed back in the 37° C. incubator with lids closed and were allowed to rewarm for another 24 hours.
After this rewarming period, microscopic images were taken to assess cell morphology (Nikon D5100, Nikon Diaphot-TMD). Cell culture medium was collected and centrifuged (4 minutes, 2000 rpm). The supernatant was collected and pH was immediately measured to prevent equilibration of the pH by the carbonate buffer in the medium, while the pelleted cells were resuspended in 5 mL of PBS. Cells remaining in the flask were washed twice with phosphate buffered saline (PBS) while the washing product was discarded. Subsequently, the cells were trypsinized by addition of 0.5 mL of trypsine and pooled with the resuspended pellet. This cell suspension was then stained at a final concentration of 0.2% trypan blue (Sigma, T8154), followed by manual assessment of viability and cell number on a Bürker-Türk hemocytometer. To conclude the assay, cell culture medium glucose levels were measured (Roche Accutrend Plus) as an indication of metabolic activity. All of these steps were performed with care to prevent mechanical stress to influence or alter the viability of the cells after cooling.
The amount represents the % cells that survived. […] In the control, the same procedure was applied to two badges of HEK cells.

PRP platelets [2] = test: PRP platelets stored with Sul 136, aggregation after stimulation with collagen; details: 10 mM
Method: (§1) […] • The color and coagulation properties were visually analysed. • The thrombocyte cells that survived were counted and it was evaluated whether the thrombocytes were aggregated. • It was evaluated if the thrombocytes still were able to function after stimulation by the addition of ADP or under influence of collagen in a 96 well plate. • The adhesion was evaluated, meaning the ability of the platelets to bind collagen in a 6 well plate preincubated with collagen. • Via an ELISA assay, it was evaluated whether thromboxane was secreted from the platelets. Thromboxane facilitates aggregation and is produced by activated blood platelets.
(§2) (+means that the cells show aggregation, ++means strong aggregation, these platelets can thus be activated upon stimulation, −means no aggregation upon stimulation)

PRP platelets [3] = test: as above; design: key: +means that the cells show aggregation; ++means strong aggregation, these platelets can thus be activated upon stimulation; −means no aggregation upon stimulation
Method: as §1, §2

apherese blood platelets = test: Apheresis platelets stored with Sul 136, platelet aggregation (Platelet Aggregation Profiler PAP 8); details: for Platelet aggregation ADP (%) / Platelet aggregation Collagen (%): stored at 4° C. with Sul 136
Method: 300 μM suspension of Sul 136 is added with a procedure, which keeps the bag content sterile and the Sul 136 is kept in suspension by frequent whirling and stored at 37° C. before it is added to the freshly harvested platelets. The Sul 136 suspension is added to three platelet bags directly from the bag. After addition, the content of the platelet bag is gently mixed. After 2 hours the first sample is drawn with a seal-docked sample bag. The sample bag is disconnected by welding and from this sample bag the samples are taken for hematology analyzing, aggregometer tests and the flow-cytometry tests. Swirling in the bag is reported by experience of the laboratory worker in the standard format. Platelets without Sul 136 put on a flatbed shaker and stored at room temperature were used as control. Another control is stored at 4° C. Platelet samples in which Sul 136 is added, are stored without shaking in a refrigerator at 4° C.
Platelet aggregation was measured according to Platelet Aggregation Profiler PAP 8 (Mölab) using all reagents from Mölab.
3 ml platelet concentrate was centrifuged at 3000 RPM to get PPP. 1800 μl PPP and 600 μl PRP were mixed.
225 μl PRP was brought in test tube with magnetic stirrer. 225 μl PPP+25 μl aquadest was brought in test tube without magnetic stirrer. PPP was used for basis. PRP was put during 2 min at 37° C. on a roller. Measurement with PRP in aggregometer was started after 30 seconds with 25 μl inductor. Measurement was performed during 6 min.

Cc1c(C)c2c(c(C)c1O)CCC(C)(C(=O)N1CCN(CC(=O)O)CC1)O2 (racemic) [SUL - 136, 2-(4-(6-hydroxy-2,5,7,8-tetramethylchroman-2-carbonyl)piperazin-1-yl)acetic acid]
viability at 0.01 µM ([1]; Homo sapiens, HEK293, 24 h, 10 nM, 24 h at 4° C., 24 h rewarming, read-out: % cells that survived): 99.6%
viability at 0.1 µM ([1]; Homo sapiens, HEK293, 24 h, 100 nM, 24 h at 4° C., 24 h rewarming, read-out: % cells that survived): 100%
viability at 1 µM ([1]; Homo sapiens, HEK293, 24 h, 1 μM, 24 h at 4° C., 24 h rewarming, read-out: % cells that survived): 98.4%
viability at 10 µM ([1]; Homo sapiens, HEK293, 24 h, 10 μM, 24 h at 4° C., 24 h rewarming, read-out: % cells that survived): 99.5%
viability at 100 µM ([1]; Homo sapiens, HEK293, 24 h, 100 μM, 24 h at 4° C., 24 h rewarming, read-out: % cells that survived): 99.3%
viability at 1000 µM ([1]; Homo sapiens, HEK293, 24 h, 1 mM, 24 h at 4° C., 24 h rewarming, read-out: % cells that survived): 100%
% cells that survived, Mean ([1]; mean over the tested concentrations): 99%
activity after stimulation with collagen (PRP platelets [2]): showed still activity
aggregation of the PRP platelets after stimulation with collagen (PRP platelets [3]; 10 min 0.001 mM, 0 h): +
aggregation of the PRP platelets after stimulation with collagen (PRP platelets [3]; 10 min 0.01 mM, 0 h): +
aggregation of the PRP platelets after stimulation with collagen (PRP platelets [3]; 10 min 0.1 mM, 0 h): +
aggregation of the PRP platelets after stimulation with collagen (PRP platelets [3]; 10 min 1 mM, 0 h): +
aggregation of the PRP platelets after stimulation with collagen (PRP platelets [3]; 10 min 10 mM, 0 h): ++
aggregation of the PRP platelets after stimulation with collagen (PRP platelets [3]; 10 min 10 mM, 24 h): ++
aggregation of the PRP platelets after stimulation with collagen (PRP platelets [3]; 10 min 10 mM, 48 h): ++
aggregation of the PRP platelets after stimulation with collagen (PRP platelets [3]; 10 min 10 mM, 72 h): ++
aggregation of the PRP platelets after stimulation with collagen (PRP platelets [3]; 10 min 10 mM, 216 h): ++
aggregation of the PRP platelets after stimulation with collagen (PRP platelets [3]; 60 min 0.001 mM, 0 h): +
aggregation of the PRP platelets after stimulation with collagen (PRP platelets [3]; 60 min 0.01 mM, 0 h): +
aggregation of the PRP platelets after stimulation with collagen (PRP platelets [3]; 60 min 0.1 mM, 0 h): +
aggregation of the PRP platelets after stimulation with collagen (PRP platelets [3]; 60 min 1 mM, 0 h): +
aggregation of the PRP platelets after stimulation with collagen (PRP platelets [3]; 60 min 10 mM, 0 h): ++
aggregation of the PRP platelets after stimulation with collagen (PRP platelets [3]; 60 min 10 mM, 24 h): ++
aggregation of the PRP platelets after stimulation with collagen (PRP platelets [3]; 60 min 10 mM, 48 h): ++
aggregation of the PRP platelets after stimulation with collagen (PRP platelets [3]; 60 min 10 mM, 72 h): ++
Platelet aggregation ADP (%) (apherese blood platelets; Donor 2, Day 1): 0%
Platelet aggregation Collagen (%) (apherese blood platelets; Donor 2, Day 1): 0%
Platelet aggregation ADP (%) (apherese blood platelets; Donor 2, Day 2): 0%
Platelet aggregation Collagen (%) (apherese blood platelets; Donor 2, Day 2): 0%
Platelet aggregation ADP (%) (apherese blood platelets; Donor 2, Day 3): 0%
Platelet aggregation Collagen (%) (apherese blood platelets; Donor 2, Day 3): 4%
Platelet aggregation ADP (%) (apherese blood platelets; Donor 2, Day 5): 0%
Platelet aggregation Collagen (%) (apherese blood platelets; Donor 2, Day 5): 0%
Platelet aggregation ADP (%) (apherese blood platelets; Donor 2, Day 8): 0%
Platelet aggregation Collagen (%) (apherese blood platelets; Donor 2, Day 8): 0%
Platelet aggregation ADP (%) (apherese blood platelets; Donor 2, Day 10): 0%
Platelet aggregation Collagen (%) (apherese blood platelets; Donor 2, Day 10): 0%
Platelet aggregation ADP (%) (apherese blood platelets; Donor 2, Day 12): 0%
Platelet aggregation Collagen (%) (apherese blood platelets; Donor 2, Day 12): 5%
Platelet aggregation ADP (%) (apherese blood platelets; Donor 2, Day 19): 0%
Platelet aggregation Collagen (%) (apherese blood platelets; Donor 2, Day 19): 0%
Platelet aggregation ADP (%) (apherese blood platelets; Donor 3, Day 1): 0%
Platelet aggregation Collagen (%) (apherese blood platelets; Donor 3, Day 1): 0%
Platelet aggregation ADP (%) (apherese blood platelets; Donor 3, Day 2): 0%
Platelet aggregation Collagen (%) (apherese blood platelets; Donor 3, Day 2): 0%
Platelet aggregation ADP (%) (apherese blood platelets; Donor 3, Day 3): 0%
Platelet aggregation Collagen (%) (apherese blood platelets; Donor 3, Day 3): 0%
Platelet aggregation ADP (%) (apherese blood platelets; Donor 3, Day 5): 6%
Platelet aggregation Collagen (%) (apherese blood platelets; Donor 3, Day 5): 0%
Platelet aggregation ADP (%) (apherese blood platelets; Donor 3, Day 8): 0%
Platelet aggregation Collagen (%) (apherese blood platelets; Donor 3, Day 8): 0%
Platelet aggregation ADP (%) (apherese blood platelets; Donor 3, Day 10): 0%
Platelet aggregation Collagen (%) (apherese blood platelets; Donor 3, Day 10): 0%
Platelet aggregation ADP (%) (apherese blood platelets; Donor 3, Day 12): 0%
Platelet aggregation Collagen (%) (apherese blood platelets; Donor 3, Day 12): 8%
Platelet aggregation ADP (%) (apherese blood platelets; Donor 3, Day 19): 0%
Platelet aggregation Collagen (%) (apherese blood platelets; Donor 3, Day 19): 0%
platelet aggregation upon stimulation with collagen and ADP (apherese blood platelets; donor 1, day 12 and day 19, stored at 4° C.): restored
Platelet aggregation ADP (%) (apherese blood platelets; donor 1, Day 1): 0%
Platelet aggregation Collagen (%) (apherese blood platelets; donor 1, Day 1): 0%
Platelet aggregation ADP (%) (apherese blood platelets; donor 1, Day 2): 0%
Platelet aggregation Collagen (%) (apherese blood platelets; donor 1, Day 2): 0%
Platelet aggregation ADP (%) (apherese blood platelets; donor 1, Day 3): 0%
Platelet aggregation Collagen (%) (apherese blood platelets; donor 1, Day 3): 0%
Platelet aggregation ADP (%) (apherese blood platelets; donor 1, Day 5): 0%
Platelet aggregation Collagen (%) (apherese blood platelets; donor 1, Day 5): 0%
Platelet aggregation ADP (%) (apherese blood platelets; donor 1, Day 8): 0%
Platelet aggregation Collagen (%) (apherese blood platelets; donor 1, Day 8): 0%
Platelet aggregation ADP (%) (apherese blood platelets; donor 1, Day 10): 0%
Platelet aggregation Collagen (%) (apherese blood platelets; donor 1, Day 10): 0%
Platelet aggregation ADP (%) (apherese blood platelets; donor 1, Day 12): 12%
Platelet aggregation Collagen (%) (apherese blood platelets; donor 1, Day 12): 17%
Platelet aggregation ADP (%) (apherese blood platelets; donor 1, Day 19): 31%
Platelet aggregation Collagen (%) (apherese blood platelets; donor 1, Day 19): 32%
